In Sander's compilation of Henry's law constants (doi:10.1016/s0045-6535(99)00082-x):

assay: Henry solubility constant Hcp at 298.15 K (mol/(m3 Pa)); conditions: reference: Altschuh et al. (1999)

Point of comparison: `Cc1ccc([N+](=O)[O-])cc1` [4-nitrotoluene], “Henry solubility constant Hcp” value 1.8. Against it:
- Clc1ccc(C(c2ccc(Cl)cc2)C(Cl)(Cl)Cl)cc1 [1,1,1-trichloro-2,2-bis-(4-chlorophenyl)-ethane] — lower, 1.2
- Clc1ccc(C(c2ccc(Cl)cc2)C(Cl)Cl)cc1 [1,1-dichloro-2,2-bis-(4-chlorophenyl)-ethane] — lower, 1.5
- ClC(Cl)=C(c1ccc(Cl)cc1)c1ccc(Cl)cc1 [1,1-dichloro-2,2-bis-(4-chlorophenyl)-ethene] — lower, 0.24
- CCC(O)CO (stereo unspecified) [1,2-butanediol] — higher, > 340
- O=[N+]([O-])c1ccc(Cl)c(Cl)c1 [1,2-dichloro-4-nitrobenzene] — lower, 1.2
- OCCCCO [1,4-butanediol] — higher, > 900
- O=[N+]([O-])c1cc(Cl)ccc1Cl [1,4-dichloro-2-nitrobenzene] — lower, 0.82
- Nc1cccc(Cl)c1 [1-amino-3-chlorobenzene] — higher, 9.8
- CCCCN [1-butanamine] — lower, 0.56
- CCCCCCCCCCO [1-decanol] — lower, 0.31
- CCc1cccc2ccccc12 [1-ethylnaphthalene] — lower, 0.014
- CCCCCCCO [1-heptanol] — lower, 0.86
- CCCCCCO [1-hexanol] — lower, 0.98
- Cc1ccccc1O [1-hydroxy-2-methylbenzene] — higher, 6.3
- Cc1cccc(O)c1 [1-hydroxy-3-methylbenzene] — higher, 12
- Cc1ccc(O)cc1 [1-hydroxy-4-methylbenzene] — higher, > 2.9
- Cc1cccc2ccccc12 [1-methylnaphthalene] — lower, 0.019
- Nc1cccc2ccccc12 [1-naphthylamine] — higher, 160
- O=[N+]([O-])c1cccc2ccccc12 [1-nitronaphthalene] — higher, 5.6
- CCCCCCCCO [1-octanol] — lower, 0.65
- CCCO [1-propanol] — higher, 2.7
- CCCCCCCCCCCCCN [1-tridecanamine] — lower, 0.09
- OCC#CCO [2-butyne-1,4-diol] — higher, > 2000
- Nc1ccc([N+](=O)[O-])cc1Cl [2-chloro-4-nitrobenzenamine] — higher, 1000
- CCc1ccc2ccccc2c1 [2-ethylnaphthalene] — lower, 0.018
- CC(C)CO [2-methyl-1-propanol] — lower, 1.1
- C=CC(C)(C)O [2-methyl-3-buten-2-ol] — lower, 0.47
- C#CC(C)(C)O [2-methyl-3-butyn-2-ol] — higher, 2.5
- Cc1ccccc1N [2-methylbenzenamine] — higher, 5
- Cc1ccc2ccccc2c1 [2-methylnaphthalene] — lower, 0.016
- Nc1ccccc1[N+](=O)[O-] [2-nitrobenzenamine] — higher, 170
- OCCc1ccccc1 [2-phenylethanol] — higher, > 37
- CC(C)O [2-propanol] — lower, 0.92
- C=CC(C)(O)CCC=C(C)C (stereo unspecified) [3,7-dimethyl-1,6-octadien-3-ol] — lower, 0.46
- O=[N+]([O-])c1cccc(Cl)c1 [3-chloronitrobenzene] — lower, 0.73
- Cc1cccc(N)c1 [3-methylbenzenamine] — higher, 5.9
- CC1CCCC(O)C1 (stereo unspecified) [3-methylcyclohexanol] — higher, 2.7
- Cc1cccc([N+](=O)[O-])c1 [3-nitrotoluene] — lower, 1.1
- OCCCc1ccccc1 [3-phenyl-1-propanol] — higher, > 180
- O=[N+]([O-])c1ccc(Cl)cc1 [4-chloronitrobenzene] — higher, 2
- Nc1ccc([N+](=O)[O-])cc1 [4-nitrobenzenamine] — higher, 8600
- OCCCCc1ccccc1 [4-phenyl-1-butanol] — higher, > 6.7
- CCNc1ccccc1 [(ethylamino)-benzene] — lower, 1
- OCc1ccccc1 [(hydroxymethyl)-benzene] — higher, > 37
- CCCCCCCCCCCCN(C)C [N,N-dimethyl-1-dodecanamine] — higher, > 4
- CN(C)C1CCCCC1 [N,N-dimethylcyclohexylamine] — lower, 0.42
- ClC1=C(Cl)[C@]2(Cl)[C@H]3[C@H]([C@@H]4C=C[C@H]3C4)[C@@]1(Cl)C2(Cl)Cl [aldrin] — lower, 0.22
- Nc1ccccc1 [aminobenzene] — higher, 5.2
- c1ccccc1 [benzene] — lower, 0.0037
- c1ccc2c(c1)cc1ccc3cccc4ccc2c1c34 [benzo[a]pyrene] — higher, 13
- OC1CCCCCCCCCCC1 [cyclododecanol] — higher, 3.4
- NC1CCCCC1 [cyclohexanamine] — higher, 2.4
- CCCCNCCCC [dibutylamine] — lower, 1
- ClC1=C(Cl)[C@]2(Cl)[C@@H]3[C@@H]4C[C@@H]([C@H]5O[C@@H]45)[C@@H]3[C@@]1(Cl)C2(Cl)Cl [dieldrin] — lower, 0.98
- ClC1=C(Cl)[C@]2(Cl)[C@@H]3[C@H]4C[C@H]([C@@H]5O[C@H]45)[C@@H]3[C@@]1(Cl)C2(Cl)Cl [endrin] — lower, 1.6
- CCO [ethanol] — lower, 1.3
- ClC1=C(Cl)C2(Cl)C3C(Cl)C=CC3C1(Cl)C2(Cl)Cl (stereo unspecified) [heptachlor] — lower, 0.034
- ClC1=C(Cl)C2(Cl)C3C4OC4C(Cl)C3C1(Cl)C2(Cl)Cl (stereo unspecified) [heptachlorepoxide] — lower, 0.47
- COc1ccc(C(c2ccc(OC)cc2)C(Cl)(Cl)Cl)cc1 [methoxychlor] — higher, 49
- Cc1ccccc1 [methylbenzene] — lower, 0.0017
- c1ccc2ccccc2c1 [naphthalene] — lower, 0.018
- O=[N+]([O-])c1ccccc1 [nitrobenzene] — lower, 1.2
- ClC1C(Cl)C(Cl)C(Cl)C(Cl)C1Cl (stereo not drawn) [α-1,2,3,4,5,6-hexachlorocyclohexane] — lower, 0.81
- ClC1C(Cl)C(Cl)C(Cl)C(Cl)C1Cl (stereo not drawn) [β-1,2,3,4,5,6-hexachlorocyclohexane] — higher, 22
- ClC1C(Cl)C(Cl)C(Cl)C(Cl)C1Cl (stereo unspecified) [γ-1,2,3,4,5,6-hexachlorocyclohexane] — higher, 1.9
